Experimental findings from US5081241A, “Spiro-pyridazines and analogs thereof useful as aldose reductase inhibitors” (American Home Products Corporation, priority 1990, dated 1992) are described below.

The subject of assay [1] is accumulation of dulcitol in the lenses, sciatic nerves and diaphragm of rats fed galactose. In words: in vivo lowering of galactitol (dulcitol) accumulation in galactosemic rats. Details: species or system male Sprague-Dawley rats. The text has this: The aldose reductase inhibiting property of the compounds of this invention and the utilization of the compounds in preventing, diminishing and alleviating diabetic complications are demonstrable in experiments using galactosemic rats, see Dvornik et al., Science, 182, 1146 (1973). Such experiments are exemplified hereinbelow after the listing of the following general comments pertaining to these experiments:
(a) Four or more groups of six male rats, 50-70 g, Sprague-Dawley strain, were used. The first group, the control group, was fed a mixture of laboratory chow (rodent Laboratory Chow, Purina) and glucose at 20% (w/w %) concentration. An untreated galactosemic group was fed a similar diet in which galactose was substituted for glucose. The third group was fed a diet prepared by mixing a given amount of the test compound with the galactose containing diet. The concentration of galactose in the diet of the treated groups was the same as that for the untreated galactosemic group.
(b) After four days, the animals were killed by euthanization. Both the lens and sciatic nerve were removed, weighed and stored frozen for polyol determination.
(§1) (c) The polyol determination was performed by a modification of the procedure of M. Kraml and L. Cosyns, Clin. Biochem., 2, 373 (1969). Only two minor reagent changes were made: (a) the rinsing mixture was an aqueous 5% (w/v) trichloroacetic acid solution and (b) the stock solution was prepared by dissolving 25 mg of dulcitol in 100 mL of an aqueous trichloroacetic acid solution. [N.B.: For each experiment the average value found in the tissue from rats fed the glucose diet was subtracted from the individual values found in the corresponding tissue in galactose-fed rats to obtain the amount of polyol accumulated.] The aldose reductase inhibiting effects of the compounds of formula (I) were also tested by employing an in vitro testing procedure similar to that described by S. Hayman and J. H. Kinoshita, J. Biol. Chem., 240, 877 (1965). In the present case the procedure of Hayman and Kinoshita was modified in that the final chromatography step was omitted in the preparation of the enzyme from bovine lens.
The figures under L, N, and D represent the percentage decrease of dulcitol accumulation in the tissues of the lens, sciatic nerve, and diaphragm, respectively, for treated rats as compared to untreated rats.

A further assay concerns the target T1, aldose reductase (Bos taurus, UniProt P16116).
T1 construct: preparation of the enzyme from bovine lens; from tissue; host or cells: bovine lens
In words: in vitro aldose reductase inhibition (modified Hayman and Kinoshita procedure; enzyme from bovine lens). In kind it is biochemical. To be noted: 10^-5. Here is the method: as §1

The mark [2] stands for this setting: feed or water, 55 mg/kg/day, 96 h.

The structures appear in SMILES notation.

Turning to `CN1C(=O)CC2(C(=O)N(Cc3ccc(Br)cc3F)C(=O)c3ccc(F)cc32)C(=O)N1C` (centres unmarked) [R^1 = F, R^5 = CH3, 2-[(4-bromo-2-fluorophenyl)methyl]-6-fluoro-1',2'-dimethylspiro[isoquinoline-4(1H),4'(1'H)-pyridazine]-1,3,3',6'(2H,2'H,5'H)-tetrone], the “% Lowering Galacititol Accumulation In Vivo % (D)” value in assay [1] (diaphragm, dose 47 mg/kg/day in diet, 4 days, vs untreated galactosemic rats) worked out at 59%. Also, the “% Lowering Galacititol Accumulation In Vivo % (L)” value in assay [1] (lens, dose 47 mg/kg/day in diet, 4 days, vs untreated galactosemic rats) is given as 18%. At aldose reductase, the “% Inhibition In Vitro” value amounted to 5%.
Regarding `CN1C(=O)CC2(C(=O)N(Cc3ccc(Br)cc3F)C(=O)c3ccccc32)C(=O)N1C` (centres unmarked) [R^1 = H, R^5 = CH3, 2-[(4-bromo-2-fluorophenyl)methyl]-1',2'-dimethylspiro[isoquinoline-4(1H),4'(1'H)-pyridazine]-1,3,3',6'(2H,2'H,5'H)-tetrone], the “% Lowering Galacititol Accumulation In Vivo % (D)” value in assay [1] (diaphragm, dose 25 mg/kg/day in diet, 4 days, vs untreated galactosemic rats) is recorded as 48%; in assay [1] (setting [2]), 82%. Also, on aldose reductase, the “% Inhibition In Vitro” value was 6%.
As to `CN1NC(=O)C2(CC1=O)C(=O)N(Cc1ccc(Br)cc1F)C(=O)c1ccccc12` (centres unmarked) [R^1 = H, R^5 = H, 2-[(4-bromo-2-fluorophenyl)methyl]-1'-methylspiro[isoquinoline-4(1H),4'(1'H)-pyridazine]-1,3,3',6'(2H,2'H,5'H)-tetrone], the “% Lowering Galacititol Accumulation In Vivo % (D)” value in assay [1] (setting [2]) is 21%. Moreover, on aldose reductase, the “% Inhibition In Vitro” value turned out to be 21%.
